The NIST ThermoML archive (doi:10.1016/j.fluid.2017.09.005)

Assay: xn = mol fraction of the nth substance listed
Settings: Liquid; for mass density: Vibrating tube method

CCO [ethanol] + O
viscosity [mPa·s], Capillary tube (Ostwald / Ubbelohde) method
Settings	x1 = 0.1	x1 = 0.2	x1 = 0.3	x1 = 0.4	x1 = 0.6	x1 = 0.8	x1 = 1
523.2 K, 20000 kPa	0.12	0.119	0.114	0.109	0.099	0.092	0.087
523.2 K, 30000 kPa	0.126	0.127	0.125	0.119	0.113	0.107	0.103
523.2 K, 40000 kPa	0.132	0.132	0.134	0.128	0.124	0.119	0.115
573.2 K, 20000 kPa	0.085	0.078	0.07	0.065	0.057	0.054	0.053
573.2 K, 30000 kPa	0.088	0.084	0.079	0.075	0.069	0.067	0.066
573.2 K, 40000 kPa	0.093	0.091	0.089	0.085	0.08	0.078	0.077
618.2 K, 20000 kPa	0.054	0.035	0.031	0.032	0.035	0.038	0.039
618.2 K, 30000 kPa	0.072	0.065	0.059	0.057	0.055	0.055	0.055
618.2 K, 40000 kPa	0.081	0.076	0.073	0.07	0.067	0.067	0.067

mass density [kg/m3]
Settings	x1 = 0.1	x1 = 0.2	x1 = 0.3	x1 = 0.4	x1 = 0.6	x1 = 0.8	x1 = 1
523.2 K, 20000 kPa	745.9	694.1	653.2	622.3	578.5	550.5	533.1
523.2 K, 30000 kPa	761.6	713.6	676.9	650.7	612.4	588.9	573.6
523.2 K, 40000 kPa	773.2	728.3	694.7	671.6	636.3	615.2	601.3
573.2 K, 20000 kPa	649.3	585.4	534.9	494.9	446.2	426.2	421.1
573.2 K, 30000 kPa	674.8	621.4	582.5	553.5	517.6	499	491.5
573.2 K, 40000 kPa	694.9	647.6	614	587.9	557.4	540.4	531
618.2 K, 20000 kPa	445.3	281.3	250.4	253.1	270.6	295	314.6
618.2 K, 30000 kPa	566.3	501.5	460.9	437.4	420.1	418.9	423.8
618.2 K, 40000 kPa	610.3	561	529.3	509.1	488.2	481.7	481.2

CO [methanol] + O
viscosity [mPa·s], Pressure drop in straight capillary
Settings	x1 = 0.1	x1 = 0.2	x1 = 0.3	x1 = 0.4	x1 = 0.6	x1 = 0.8	x1 = 1
523.2 K, 20000 kPa	0.116	0.112	0.108	0.102	0.09	0.079	0.07
523.2 K, 30000 kPa	0.118	0.117	0.114	0.11	0.1	0.09	0.08
523.2 K, 40000 kPa	0.121	0.121	0.119	0.115	0.107	0.098	0.089
573.2 K, 20000 kPa	0.084	0.08	0.074	0.067	0.054	0.045	0.042
573.2 K, 30000 kPa	0.089	0.085	0.078	0.078	0.072	0.065	0.063
573.2 K, 40000 kPa	0.094	0.091	0.087	0.084	0.075	0.069	0.065
618.2 K, 20000 kPa	0.06	0.035	0.026	0.025	0.027	0.027	0.029
618.2 K, 30000 kPa	0.071	0.065	0.058	0.052	0.047	0.044	0.043
618.2 K, 40000 kPa	0.078	0.073	0.069	0.065	0.059	0.055	0.053

mass density [kg/m3]
Settings	x1 = 0.1	x1 = 0.2	x1 = 0.3	x1 = 0.4	x1 = 0.6	x1 = 0.8	x1 = 1
523.2 K, 20000 kPa	767.8	724.7	686.4	652.8	597.1	552.1	517.5
523.2 K, 30000 kPa	781.4	740.7	705.9	677	628.4	591.4	563.57
523.2 K, 40000 kPa	791.9	754.4	722.3	694.7	650.9	618.2	593.3
573.2 K, 20000 kPa	674.5	619.8	569.3	522.3	439.6	380.5	345.3
573.2 K, 30000 kPa	696.2	650.4	610.2	575.5	520.4	482.3	457.63
573.2 K, 40000 kPa	714.3	673.1	638	608	562.4	530.6	511
618.2 K, 20000 kPa	497.6	299.3	208.9	198.2	198.4	203.9	210.5
618.2 K, 30000 kPa	586	524.1	473.1	430.4	381.7	360.2	350.4
618.2 K, 40000 kPa	624.9	578.5	544.1	512	470.3	446.2	427.7
